From patent EP2818471A1, “Nitrogen bicyclic compounds as inhibitors for Scyl1 and Grk5” (Max-Planck-Gesellschaft zur Förderung der Wissenschaften …, priority 2013, dated 2014)

Tested on: beta-TC6 cells
Assay: Insulin HTRF assay, relative activity Ar normalized to sunitinib
Format: cell-based
Conditions: Mus musculus, normalized to positive control sunitinib (5 µM = 100%), Table 10
Procedure, shortened: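 beta-TC6 cells (15k/well) were seeded for 24 or 48 h, washed and exposed to test compound or sunitinib (5 µM f.c.) in induction buffer with 0.5% DMSO for 2, 3 or 4 h at 37°C. Secreted insulin in the supernatant was measured by two-antibody HTRF after 120 min at RT. Ar = (V − 0% control)/(100% control − 0% control) × 100.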

Row | SMILES | Emax
1 | OCc1ccc(-c2ccc3nnc(-c4ccncc4)n3c2)cc1 [compound 179, [4-[3-(4-pyridyl)-[1,2,4]triazolo[4,3-a]pyridin-6-yl]phenyl]methanol] | 20 to 50%
2 | CC(=O)Nc1cccc(-c2cn3c(-c4ccc(C(=O)N(C)C)cc4)cnc3cn2)c1 [compound 432, 4-[6-(3-acetamidophenyl)imidazo[1,2-a]pyrazin-3-yl]-N,N-dimethyl-benzamide] | 20 to 50%
3 | Oc1cccc(-c2ccc3ncc(-c4cccc(C(F)(F)F)c4)n3n2)c1 [compound 135, 3-[3-[3-(trifluoromethyl)phenyl]imidazo[1,2-b]pyridazin-6-yl]phenol] | 20 to 50%
4 | CCCNc1ccc2ncc(-c3ccc(C(=O)O)cc3)n2n1 [compound 20, 4-[6-(propylamino)imidazo[1,2-b]pyridazin-3-yl]benzoic acid] | 10 to 20%
5 | CN(C)CCNC(=O)c1ccc(-c2cn3c(-c4ccc(N(C)C)cc4)cnc3cn2)cc1 [compound 289, N-(2-dimethylaminoethyl)-4-[3-(4-dimethylaminophenyl)imidazo[1,2-a]pyrazin-6-yl]benzamide] | 50 to 100%
6 | Fc1cccc(-c2cnc3cnc(-c4ccc(Cl)cc4)cn23)c1 [compound 388, 6-(4-chlorophenyl)-3-(3-fluorophenyl)imidazo[1,2-a]pyrazine] | 20 to 50%
7 | Cc1cc(-c2cnc3cccnn23)cc(C)c1O [compound 77, 4-imidazo[1,2-b]pyridazin-3-yl-2,6-dimethyl-phenol] | 10 to 20%
8 | c1csc(-c2cnc3cnc(-c4ccsc4)cn23)c1 [compound 415, 3-(2-thienyl)-6-(3-thienyl)imidazo[1,2-a]pyrazine] | 50 to 100%
9 | O=C(NCCO)c1ccc(-c2cnc3cccnn23)cc1 [compound 78, N-(2-hydroxyethyl)-4-imidazo[1,2-b]pyridazin-3-yl-benzamide] | 10 to 20%
10 | CNc1ccc2ncc(-c3ccccc3O)n2n1 [compound 60, 2-[6-(methylamino)imidazo[1,2-b]pyridazin-3-yl]phenol] | 20 to 50%
11 | CC(C)(C)c1ccc(-c2cnc3cnc(-c4ccc(N)nc4)cn23)cc1 [compound 408, 5-[3-(4-tert-butylphenyl)imidazo[1,2-a]pyrazin-6-yl]pyridin-2-amine] | 10 to 20%
12 | COc1cc(OC)cc(-c2cnc3cnc(-c4ccccc4N(C)C)cn23)c1 [compound 436, 2-[3-(3,5-dimethoxyphenyl)imidazo[1,2-a]pyrazin-6-yl]-N,N-dimethylaniline] | 20 to 50%
13 | N#Cc1ccc(-c2cnc3cnc(-c4ccc(CO)cc4)cn23)cc1 [compound 338, 4-[6-[4-(hydroxymethyl)phenyl]imidazo[1,2-a]pyrazin-3-yl]benzonitrile] | 20 to 50%
14 | CNc1ccc2ncc(/C=C\CCCO)n2n1 [compound 59, (Z)-5-[6-(methylamino)imidazo[1,2-b]pyridazin-3-yl]pent-4-en-1-ol] | 10 to 20%
15 | CC(=O)c1ccc(-c2cnc3cccnn23)cc1 [compound 87, 1-(4-imidazo[1,2-b]pyridazin-3-ylphenyl)ethanone] | 10 to 20%
16 | CN(C)c1cccc(-c2ccc3nnc(-c4cscn4)n3c2)c1 [compound 227, N,N-dimethyl-3-(3-thiazol-4-yl-[1,2,4]triazolo[4,3-a]pyridin-6-yl)aniline] | 50 to 100%
17 | COc1cc(-c2ccc3nnc(-c4ccoc4)n3c2)cc(OC)c1OC [compound 219, 3-(3-furyl)-6-(3,4,5-trimethoxyphenyl)-[1,2,4]triazolo[4,3-a]pyridine] | 50 to 100%
18 | COc1ccc(-c2cnc3cnc(-c4cccs4)cn23)cc1 [compound 362, 3-(4-methoxyphenyl)-6-(2-thienyl)imidazo[1,2-a]pyrazine] | 20 to 50%
19 | COc1ccc(-c2ccc3nnc(-c4ccccc4C)n3c2)cc1OC [compound 223, 6-(3,4-dimethoxyphenyl)-3-(o-tolyl)-[1,2,4]triazolo[4,3-a]pyridine] | 50 to 100%
20 | CN(C)C(=O)c1ccc(-c2cnc3cnc(-c4ccsc4)cn23)cc1 [compound 431, N,N-dimethyl-4-[6-(3-thienyl)imidazo[1,2-a]pyrazin-3-yl]benzamide] | 20 to 50%
21 | COc1cc(OC)cc(-c2cn3c(-c4ccc5c(c4)OCO5)cnc3cn2)c1 [compound 308, 3-(1,3-benzodioxol-5-yl)-6-(3,5-dimethoxyphenyl)imidazo[1,2-a]pyrazine] | 50 to 100%
22 | Fc1ccc(-c2cnc3cnc(-c4ccco4)cn23)cc1Cl [compound 351, 3-(3-chloro-4-fluoro-phenyl)-6-(2-furyl)imidazo[1,2-a]pyrazine] | 20 to 50%
23 | COc1cccc(-c2cn3c(NC(=O)Cc4ccsc4)cnc3cn2)c1 [compound 279, N-[6-(3-methoxyphenyl)imidazo[1,2-a]pyrazin-3-yl]-2-(3-thienyl)acetamide] | 20 to 50%
24 | CN(C)CC#Cc1ccc2nnc(-c3ccccc3)n2c1 [compound 168, N,N-dimethyl-3-(3-phenyl-[1,2,4]triazolo[4,3-a]pyridin-6-yl)prop-2-yn-1-amine] | 10 to 20%

Row | SMILES | Emax
25 | COc1ccccc1-c1cn2c(NC(=O)c3ccccc3)cnc2cn1 [compound 267, N-[6-(2-methoxyphenyl)imidazo[1,2-a]pyrazin-3-yl]benzamide] | 20 to 50%
26 | COc1cc(-c2cn3c(-c4ccc5ncccc5c4)cnc3cn2)ccc1O [compound 441, 2-methoxy-4-[3-(6-quinolyl)imidazo[1,2-a]pyrazin-6-yl]phenol] | 20 to 50%
27 | CN1CCN(c2ccc(-c3cn4c(-c5cccc(O)c5)cnc4cn3)cc2)CC1 [compound 367, 3-[6-[4-(4-methylpiperazin-1-yl)phenyl]imidazo[1,2-a]pyrazin-3-yl]phenol] | 20 to 50%
28 | CN(C)C(=O)c1cccc(-c2ccc3nnc(-c4ccc5nccnc5c4)n3c2)c1 [compound 246, N,N-dimethyl-3-(3-quinoxalin-6-yl-[1,2,4]triazolo[4,3-a]pyridin-6-yl)benzamide] | 50 to 100%
29 | CCOc1ccc(-c2cnc3cccnn23)cc1 [compound 85, 3-(4-ethoxyphenyl)imidazo[1,2-b]pyridazine] | 10 to 20%
30 | OCc1ccc(-c2cnc3cnc(-c4ccco4)cn23)cc1 [compound 373, [4-[6-(2-furyl)imidazo[1,2-a]pyrazin-3-yl]phenyl]methanol] | 20 to 50%
31 | CS(=O)(=O)Nc1cccc(-c2cnc3ccc(Cc4ccc(F)cc4)nn23)c1 [compound 159, N-[3-[6-[(4-fluorophenyl)methyl]imidazo[1,2-b]pyridazin-3-yl]phenyl]methanesulfonamide] | 10 to 20%
32 | Oc1ccc(-c2cn3c(-c4cccs4)cnc3cn2)cc1 [compound 417, 4-[3-(2-thienyl)imidazo[1,2-a]pyrazin-6-yl]phenol] | 50 to 100%
33 | COc1ccc(-c2ccc3nnc(-c4ccncc4)n3c2)cc1OC [compound 177, 6-(3,4-dimethoxyphenyl)-3-(4-pyridyl)-[1,2,4]triazolo[4,3-a]pyridine] | 20 to 50%
34 | Cn1cc(-c2cnc3cnc(-c4cc5ccccc5s4)cn23)cn1 [compound 439, 6-(benzothiophen-2-yl)-3-(1-methylpyrazol-4-yl)imidazo[1,2-a]pyrazine] | 20 to 50%
35 | c1cncc(-c2cnc3cnc(-c4ccc(N5CCOCC5)cc4)cn23)c1 [compound 315, 4-[4-[3-(3-pyridyl)imidazo[1,2-a]pyrazin-6-yl]phenyl]morpholine] | 20 to 50%
36 | Fc1cccc(-c2cn3c(-c4ccc5c(c4)OCO5)cnc3cn2)c1 [compound 304, 3-(1,3-benzodioxol-5-yl)-6-(3-fluorophenyl)imidazo[1,2-a]pyrazine] | 50 to 100%
37 | CC(C)c1cccc(-c2ccc3nnc(-c4cccnc4)n3c2)c1 [compound 183, 6-(3-isopropylphenyl)-3-(3-pyridyl)-[1,2,4]triazolo[4,3-a]pyridine] | 50 to 100%
38 | COc1cc(-c2cnc3ccc(NCc4cccc(Cl)c4)nn23)ccc1O [compound 16, 4-[6-[(3-chlorophenyl)methylamino]imidazo[1,2-b]pyridazin-3-yl]-2-methoxy-phenol] | 20 to 50%
39 | OCc1ccc(-c2cn3c(-c4cccc(F)c4)cnc3cn2)cc1 [compound 389, [4-[3-(3-fluorophenyl)imidazo[1,2-a]pyrazin-6-yl]phenyl]methanol] | 20 to 50%
40 | CCOc1cccc(-c2cn3c(-c4ccc(CCC(=O)O)cc4)cnc3cn2)c1 [compound 328, 3-[4-[6-(3-ethoxyphenyl)imidazo[1,2-a]pyrazin-3-yl]phenyl]propanoic acid] | ≥ 100%
41 | COc1cc(-c2ccc3nnc(-c4ccc5nccnc5c4)n3c2)ccc1O [compound 244, 2-methoxy-4-(3-quinoxalin-6-yl-[1,2,4]triazolo[4,3-a]pyridin-6-yl)phenol] | 50 to 100%
42 | NC(=O)c1ccc(-c2cnc3ccc(Cc4ccc(F)c(F)c4)nn23)cc1 [compound 145, 4-[6-[(3,4-difluorophenyl)methyl]imidazo[1,2-b]pyridazin-3-yl]benzamide] | 20 to 50%
43 | O=C(Cc1ccsc1)Nc1cnc2cnc(-c3ccccc3F)cn12 [compound 278, N-[6-(2-fluorophenyl)imidazo[1,2-a]pyrazin-3-yl]-2-(3-thienyl)acetamide] | 10 to 20%
44 | COc1cc(-c2cnc3cnc(-c4ccc(N)nc4)cn23)ccc1O [compound 396, 4-[6-(6-amino-3-pyridyl)imidazo[1,2-a]pyrazin-3-yl]-2-methoxy-phenol] | 20 to 50%
45 | CN(C)c1ccc(-c2cnc3cnc(-c4ccc(O)cc4)cn23)cc1 [compound 284, 4-[3-(4-dimethylaminophenyl)imidazo[1,2-a]pyrazin-6-yl]phenol] | 50 to 100%
46 | O=C(NC1CCCC1)c1ccc(-c2cn3c(-c4ccc(CO)cc4)cnc3cn2)cc1 [compound 375, N-cyclopentyl-4-[3-[4-(hydroxymethyl)phenyl]imidazo[1,2-a]pyrazin-6-yl]benzamide] | 20 to 50%
47 | CN(C)C(=O)c1ccc(-c2cnc3cnc(-c4ccc5c(ccn5C)c4)cn23)cc1 [compound 433, N,N-dimethyl-4-[6-(1-methylindol-5-yl)imidazo[1,2-a]pyrazin-3-yl]benzamide] | 20 to 50%
